Data on six molecules can be found in patent US10307424B2, “Drug with hepatoprotective activity” (priority 2015, dated 2019).

Assay [1] concerns Acute toxic hepatitis in rats induced by carbon tetrachloride (CCl4). The experiment in a line: Hepatoprotective activity in rats with acute toxic hepatitis induced by CCl4. The assay is classed as in vivo, Wistar rats. The note with it: 25 mg/kg; for Survivability of the animals by day 28: Wistar rats; for Body weight of the animals by the 20th day: surviving animals. The method, then: The animals were in standard housing conditions under natural light conditions, with free access to water and food. Acute toxic hepatitis in rats was induced by means of intragastric administration of 50% solution of carbon tetrachloride (CCl 4) in olive oil at a dose of 1 ml/kg for 6 days. […]
The tested preparations were administered orally in the form of a suspension in olive oil once a day after the formation of the model pathology or intravenously at a dose of 25 mg/kg. The weight dynamics of the rats were determined on Sartorius scale.

Assay [2] has as its system toxic hepatitis modelled by combined administration of dichloroethane and acetaminophen. As to the kind of experiment: Combined effect of subject compounds and known hepatic drugs, toxic hepatitis by dichloroethane and acetaminophen (500 and 500 mg/kg). The assay is classed as in vivo. The note with it: untreated control 10. The method, then:
Also, the combined effect of the subject compounds and known drugs for the treatment of hepatic diseases was examined.
For the modeling of toxic hepatitis, the combined administration of dichloroethane and acetaminophen in doses of 500 and 500 mg/kg, respectively, was used. After 10 days all experimental animals confirmed the presence of toxic hepatitis according to the morphological pattern of the liver.

The subject of assay [3] is patients with toxic liver damage, alcoholic hepatitis, alcoholic liver disease (fatty hepatosis), alcoholic liver cirrhosis. The experiment in a line: Efficacy of derivatives No. 1 and No. 2 in patients with liver disease (decrease in ALT, ASAT, GGTP). The assay is classed as in vivo, patients (men and women). The note with it: of 30 patients. The text has this:
The study of the efficacy of derivatives No. 1 and No. 2 was additionally carried out with the participation of patients (men and women aged 25 to 60 years) with the following diagnoses: toxic liver damage, alcoholic hepatitis, alcoholic liver disease (fatty hepatosis), alcoholic liver cirrhosis.
Inclusion criteria: increased levels of alanine aminotransferase (ALT), aspartate aminotransferase (ASAT), gamma glutaminetransferase (GGTP) at least 2 times the upper limit of the normal value.
Patients of the experimental group (30 persons) adhibited derivative No. 1 in the form of capsules containing 250 mg of the drug in a total dose of 1000 mg/day.
Patients of the control group (9 persons) adhibited placebo (capsules filled with chalk).
Patients of the experimental group (30 persons) adhibited derivative No. 2 in the form of lyophilisate for IV injection containing 50 mg of the drug in a total dose of 300 mg/day.
Patients of the control group (10 persons), were administered a 0.9% solution of NaCl as a placebo.

Assay [4] concerns toxic hepatitis modelled by combined administration of dichloroethane and acetaminophen. The experiment in a line: Toxic hepatitis caused by dichloroethane and acetaminophen (300 and 250 mg/kg), treatment with derivative No. 4. Type of assay: in vivo, laboratory rats. The note with it: for Cytochrome B5 / Cytochrome P450 / Glycogen / Reduced glutathione: liver. The method, then: The efficacy of derivative No. 4 on additional parameters was studied in laboratory rats.
For the modeling of toxic hepatitis, the combined administration of dichloroethane and acetaminophen in doses of 300 and 250 mg/kg, respectively, was used. After 10 days all experimental animals confirmed the presence of toxic hepatitis according to the morphological pattern of the liver. In the untreated control group, by the 10th day of the study, 4 animals out of 10 died.
From that time, for 10 days, the experimental animals were administered, once a day, derivative No. 4 (50 mg/kg, intragastrically in starch mucus) or derivative No. 4 (10 mg/kg, IV, into the tail vein).

Setting [5] is: capsules 250 mg, total dose 1000 mg/day, control 1 of 9.
The mark [6] stands for this setting: lyophilisate for IV injection, total dose 300 mg/day, control 1 of 10.
The mark [7] stands for this setting: Enteral administration, 50 mg/kg intragastrically once a day, day 10.
[8] abbreviates: Parenteral administration, 10 mg/kg IV once a day, day 10.
The mark [9] stands for this setting: Intraventricular administration, once a day.

Consider `O=C1NC(O)(O)C(=NO)C(=O)N1c1ccc(Br)cc1` [Derivative 1, 3-(4-bromophenyl)-6,6-dihydroxy-5-hydroxyiminohexahydro-2,4-pyrimidinedione], for which, in assay [1] (Intravenous administration), the “Survivability of the animals by day 28” value worked out at 57% and the “Body weight of the animals by the 20th day” value (“Body weight of the animals” below) stood at 171 ± 5%. Moreover, in assay [1] (once a day), the “Survivability of the animals by day 28” value turned out to be 59%. Also, the “Survivability by the 10th day” value in assay [2] is 40%. Moreover, in assay [3] (setting [5]), the “The number of patients in the group with a decrease in ALT by 30% or more” value is listed as 23 and the “The number of patients in the group with a decrease in ASAT by 30% or more” value is on record as 23. Moreover, in assay [3] (capsules 250 mg, total dose 1000 mg/day, control 2 of 9), the “The number of patients in the group with a decrease in GGTP by 30% or more” value was 25.

Regarding `O=C1NC(O)(O)C(=N[O-])C(=O)N1c1ccc(Br)cc1.[Na+]` [Derivative 2], the “Survivability by the 10th day” value in assay [2] is 40%. Further, in assay [3] (setting [6]), the “The number of patients in the group with a decrease in ALT by 30% or more” value is recorded as 17 and the “The number of patients in the group with a decrease in ASAT by 30% or more” value came out at 19. Besides, the “The number of patients in the group with a decrease in GGTP by 30% or more” value in assay [3] (lyophilisate for IV injection, total dose 300 mg/day, control 2 of 10) is listed as 25.

On to `NC(CO)(CO)CO.O=C1NC(O)(O)C(=NO)C(=O)N1c1ccc(Br)cc1` [Derivative 4], for which, in assay [2], the “Survivability by the 10th day” value is given as 40%. Moreover, in assay [4] (setting [7]), the “-SH-group” value amounted to 900 ± 50 μmol/100 ml, the ALP is reported as 0.73 ± 0.09 μkat/l, the ALT is listed as 0.54 ± 0.08 μkat/l and the ASAT is recorded as 0.72 ± 0.06 μkat/l. In assay [4] (setting [7]), the Body weight is recorded as 180 ± 15 g; the “Bromsulfalein, at the 10th minute after the introduction” value amounted to 19.3 ± 1.1 mg %; the Ceruloplasmin turned out to be 520 ± 50 mg/L; the ChE was found to be 2.1 ± 0.2 µmol/g/min. For the same molecule, in assay [4] (setting [7]), the Cholesterol worked out at 1.58 ± 0.21 mmol/L, the Glucose came out at 4.5 ± 0.4 mmol/L, the Hexenalum sleep is recorded as 27.0 ± 1.5 min and the LDH came out at 6.82 ± 0.34 mmol/h/L. Moreover, in assay [4] (setting [7]), the Prothrombin time came to 43 ± 5 s, the Timole test is 2.86 ± 0.44 units of turbidity, the Total lipids is 3.2 ± 0.1 g/L and the Total protein amounted to 52 ± 5 g/L. Further, in assay [4] (setting [7]), the “Cytochrome B5” value worked out at 0.54 ± 0.07 mmol/mg protein ×10^−4, the “Cytochrome P450” value is reported as 0.98 ± 0.06 mmol/mg protein ×10^−4, the Glycogen is listed as 1600 ± 100 mg % and the Reduced glutathione amounted to 165 ± 10 mg %. Also, in assay [4] (setting [8]), the “-SH-group” value is listed as 640 ± 50 μmol/100 ml, the ALP is reported as 0.82 ± 0.12 μkat/l, the ALT was determined as 0.69 ± 0.06 μkat/l and the ASAT is listed as 0.76 ± 0.08 μkat/l. Further, in assay [4] (setting [8]), the Body weight was determined as 185 ± 5 g; the “Bromsulfalein, at the 10th minute after the introduction” value was 23.0 ± 1.6 mg %; the Ceruloplasmin is 580 ± 80 mg/L; the ChE came out at 2.2 ± 0.2 µmol/g/min. Moreover, in assay [4] (setting [8]), the Cholesterol worked out at 1.70 ± 0.26 mmol/L, the Glucose was found to be 4.6 ± 0.2 mmol/L, the Hexenalum sleep is recorded as 29.5 ± 1.5 min and the LDH came to 8.24 ± 0.35 mmol/h/L. In assay [4] (setting [8]), the Timole test is on record as 3.22 ± 0.53 units of turbidity, the Total lipids was 2.9 ± 0.2 g/L, the Total protein came to 48 ± 4 g/L and the “Cytochrome B5” value is recorded as 0.68 ± 0.04 mmol/mg protein ×10^−4. In addition, in assay [4] (setting [8]), the “Cytochrome P450” value stood at 1.12 ± 0.03 mmol/mg protein ×10^−4, the Glycogen was 1500 ± 200 mg % and the Reduced glutathione amounted to 170 ± 10 mg %. The Death of animals entry in assay [4] (enterally or parenterally injected, untreated control: 4 animals out of 10 died by the 10th day) is given as “not a single animal died”.

`NCCCO.O=C1NC(O)(O)C(=NO)C(=O)N1c1ccc(Br)cc1` [Derivative 5]: the “Survivability of the animals by day 28” value in assay [1] (Intravenous administration) is on record as 60%; in assay [1] (setting [9]), 61%. In addition, the “Body weight of the animals” value in assay [1] (Intravenous administration) is recorded as 168 ± 7%; in assay [1], 161 ± 9%.

In the case of `C[S+](CC[C@H](N)C(=O)[O-])C[C@H]1O[C@@H](n2cnc3c(N)ncnc32)[C@H](O)[C@@H]1O` (some centres unmarked) [Prototype, S-Adenosyl methionine-ademetionine, reference compound], the figures for the “Survivability of the animals by day 28” value in assay [1] (Intravenous administration) and in assay [1] (setting [9]) were 48% and 46%, respectively. Further, the “Body weight of the animals” value was 159 ± 4% in assay [1] (Intravenous administration) and 160 ± 4% in assay [1]. Also, the “Survivability by the 10th day” value in assay [2] was found to be 30%.

As to `C[C@H](CCC(=O)O)[C@H]1CC[C@H]2[C@@H]3[C@@H](O)C[C@@H]4C[C@H](O)CC[C@]4(C)[C@H]3CC[C@]12C` [Ursodeoxycholic acid, ursodeoxycholic acid, reference compound], in assay [2], the “Survivability by the 10th day” value came out at 20%.
